According to patent US20180028480A1, “METHODS OF REDUCING OR PREVENTING OXIDATIVE MODIFICATION OF MEMBRANE POLYUNSATURATED FATTY ACIDS” (Amarin Pharmaceuticals Ireland Limited, priority 2015, published 2018):

How the values were obtained:
[1] = X-ray diffraction of glucose-treated DLPC/cholesterol membranes under oxidative conditions (Example 8); details: 10.0 μM; 0.6 C/P; glucose-induced lipid peroxidation 72 hours (FIG. 14)
Description: Values are reported as mean±S.D. (N=3).
[…] Membranes were reconstituted from DLPC and cholesterol at a C/P mole ratio of 0.6:1 and treated with the various agents to achieve a total drug-to-phospholipid mole ratio of 1:30.
Multilamellar vesicles (MLVs) were prepared as binary mixtures of POPC and cholesterol at 50 mol %. MLVs with DLPC and cholesterol at cholesterol-to-phospholipid (C/P) mole ratios of 0.1:1 to 1.1:1 were also prepared in a similar manner. Component lipids (in chloroform) were transferred to borosilicate culture tubes and combined with vehicle (ethanol) or an equal volume of EPA, DHA, fenofibrate, niacin or gemfibrozil stock solution(s) and adjusted to achieve a drug-to-phospholipid (D/P) mole ratio of 1:30. Membranes reconstituted from POPC and cholesterol (at 50 mol % cholesterol) were treated with each of the various agents at 5 mol %. Samples were then shell-dried under nitrogen gas and placed under vacuum for 3 hours to remove residual solvent.
After drying, each sample was resuspended in glucose-free or glucose-containing saline buffer to yield a final phospholipid concentration of 2.5 mg/mL. Lipid suspensions were then vortexed for 3 minutes at ambient temperature to form MLVs.
Membrane samples were oriented for x-ray diffraction analysis as described in Mason, et al., J. Biol. Chem., vol. 281, pages 9337-45 (2006). Briefly, 100 μL aliquots of each MLV preparation (containing 250 μg of phospholipid) were transferred to Lucite sedimentation cells fitted with a removable aluminum foil substrate designed to collect MLVs into a single membrane pellet upon centrifugation. Samples were then loaded into a Sorvall AH-629 swinging bucket ultracentrifuge rotor (DuPont Corp., Wilmington, Del.) and centrifuged at 35,000 g, 5° C., for 1.5 hours.
Following membrane orientation, sample supernatants were aspirated and aluminum foil substrates mounted onto curved glass slides. The membrane samples were then placed in hermetically sealed containers in which temperature and relative humidity were controlled during x-ray diffraction analysis. Data reported in this study were collected at 20° C. and 74% relative humidity.
This technique allows for precise measurement of the unit cell periodicity, or d-space, of the membrane lipid bilayer, which is the distance from the center of one lipid bilayer to the next, including surface hydration.
The presence of cholesterol domains in a given membrane sample results in the production of distinct Bragg (diffraction) peaks that have singular periodicity values of 34 Å and 17 Å. These peaks are typically referred to as first- and second-order cholesterol domain peaks.

[2] = test system: Human umbilical vein endothelial cells (HUVECs); assay: Nitric oxide release from HUVECs incubated with pretreated oxidized sdLDL (Example 7); format: cell-based; details: oxidized sdLDL pretreated at 10.0 μM
Description: All samples, with the exception of non-oxidized sdLDL controls, were subjected to copper-induced oxidation for 1 hour. Human umbilical vein endothelial cells (HUVECs) were incubated with the various sdLDL samples, stimulated with calcium, and monitored for nitric oxide (NO) and peroxynitrite (ONOO^-) release using nanosensor technology.

[3] = Fluorescence anisotropy, DPH apparent rotational correlation time (Example 8); details: POPC, 0 or 50 mol % cholesterol; increasing omega-3 fatty acid concentrations (FIGS. 16A-16B)
Text: FIGS. 16A-16B show the dose-dependent effects of EPA and DHA on the ARCT measured for DPH in POPC membranes prepared at either 0 or 50 mol % cholesterol. †p=0.0331 versus cognate DHA treatment (5 mol % omega-3 fatty acids (O3FA), no cholesterol); ^§p=0.0016 versus cognate DHA treatment (5 mol % O3FA, 50 mol % cholesterol); ^‡p=0.0032 versus cognate DHA treatment (10 mol % O3FA, 50 mol % cholesterol) (unpaired, two-tailed Student's t-test). Values are mean±S.D. (N=3).
Fluorescence anisotropy experiments were conducted using large unilamellar vesicles (LUVs) of 100 nm diameter of either POPC (or POPC/cholesterol) containing increasing concentrations of EPA or DHA and 1 mol % DPH fluorescent. Briefly, 640 nmol of total lipid (phospholipid and sterol) and 6.4 nmol of fluorescent probe was mixed well and dried under a stream of nitrogen while being warmed gently at 35° C. […]
In order to ensure that the anisotropy values measured for DPH are not influenced by lifetime-induced artifacts, the apparent (average) rotational correlation times (ARCT) were calculated using Perrin's equation: […]
where r0 is the limiting anisotropy of DPH, r is the steady state anisotropy, and is the mean fluorescence lifetime.

[4] = LOOH formation in glucose-treated model membranes, EPA versus EA and ETE (Example 5); format: biochemical; details: FIG. 8
Description: An experiment was conducted to compare the ability of EPA to prevent lipid hydroperoxide formation in model membranes treated with glucose to two other 20-carbon fatty acids: eicosanoic acid (“EA,” also referred to as arachidic acid, C20:0) and eicosatrienoic acid (“ETE,” C20:3, n-3). All MLV samples were subjected to time-dependent autoxidation by incubating at 37° C. in an uncovered, shaking water bath. This method allows lipid peroxidation to occur gradually without requiring the use of exogenous initiators. Small aliquots (5-100 μL) of each sample were removed, immediately following MLV preparation (0 hr) and after exposing samples to oxidative conditions for 72 or 96 hr, and combined with 1.0 mL of activated CHOD-iodide color reagent. Aliquot volume was reduced with each successive time point to ensure that spectrophotometric readings were within the optimal adsorption range. Test samples were covered and incubated in darkness at room temperature for at least 4 hr. Sample absorbances were then measured against a CHOD blank at 365 nm using a Beckman DU-640 spectrophotometer. The CHOD colorimetric assay is based on the oxidation of iodide (I^−) by lipid hydroperoxide (LOOH) to form triiodide (I3^−), the quantity of which is directly proportional to the amount of LOOH present in the lipid sample. The molar absorptivity (ε) of I3^− is 2.46×10^4 M^−1 cm^−1 at 365 nm.

For CC/C=C\C/C=C\C/C=C\C/C=C\C/C=C\CCCC(=O)O [EPA, cis-5,8,11,14,17-Eicosapentaenoic acid], the “effect on d-space values” [1] was “significantly inhibited glucose-induced reductions and peroxidation-induced reductions in d-space values”, the “increase of NO release as compared to non-oxidized sdLDL treatment” value [2] was 23% and the “increase of NO release as compared to oxidized LDL treatment” value [2] was 53%. The “DPH apparent rotational correlation time / membrane fluidity” value [3] was “did not alter membrane fluidity” and the “LOOH formation compared to vehicle, glucose, glucose and EA, glucose and ETE” value [4] was “significantly less LOOH formation”.
